Results: patent US8247211B2, “Glycopeptide antibiotics” (American Cyanamid Company, priority 2001, dated 2012)
≈ marks a conversion by molar mass, not a printed value.

Key:
[1] = tested on: Staphylococcus aureus-SMITH (GC 4543); test: Acute lethal infection in mice (ED50); format: in vivo; conditions: female CD-1 mice, intraperitoneal challenge, intravenous dose 30 min. after infection, 7 day survival ratios
Method in brief: (§1)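 Female CD-1 mice (20 ± 1-2 g) were infected intraperitoneally with enough bacteria, suspended in Trypticase Soy Broth or hog gastric mucin, to kill untreated controls within 24-48 hr. Compound in saline or 5% dextrose was given intravenously 30 min after infection. ED50 came from pooled 7-day survival over 3 tests.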

[2] = tested on: Enterococcus faecalis (GC 6189), vancomycin resistant strain; test: Acute lethal infection in mice (ED50); format: in vivo; conditions: female CD-1 mice, intraperitoneal challenge, intravenous dose 30 min. after infection, 7 day survival ratios
Method in brief: as §1

[3] = tested on: Staphylococcus sp.; test: In vitro antibacterial evaluation: minimum inhibitory concentration (MIC), broth dilution method; format: cell-based; conditions: for MIC Staphylococcus aureus (ATCC 29213): strain ATCC 29213; for MIC Staphylococcus aureus (GC 1131): strain GC 1131; for MIC Staphylococcus aureus (GC 3051): strain GC 3051; for MIC Staphylococcus aureus (GC 3053): strain GC 3053; for MIC Staphylococcus aureus (GC 4541): strain GC 4541; for MIC Staphylococcus aureus (GC 4542): strain GC 4542; for MIC Staphylococcus aureus-SMITH (GC 4543): strain GC 4543; for MIC Staphylococcus aureus (GC 4544): strain GC 4544; for MIC Staphylococcus aureus (GC 4545): strain GC 4545; for MIC Staphylococcus haemolyticus (GC 4546): strain GC 4546; for MIC Coagulase Negative Staphylococcus (GC 4547): strain GC 4547; for MIC Coagulase Negative Staphylococcus (GC 4548): strain GC 4548; for MIC Coagulase Negative Staphylococcus (GC 4549): strain GC 4549; for MIC Coagulase Negative Staphylococcus (GC 4551): strain GC 4551; for MIC Coagulase Negative Staphylococcus (GC 6257): strain GC 6257
Method in brief: (§2)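 Susceptibility determined by NCCLS-recommended broth dilution (M7-A2), Muller-Hinton II […]. Concentration span 64-0.06 μg/mL, inoculum 5×10^5 CFU/mL. Isolates include strains resistant to methicillin, penicillin and/or vancomycin.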

[4] = tested on: Enterococcus sp.; test: as above; format: cell-based; conditions: broth dilution, 5×10^5 CFU/mL, 18 hours at 35° C.
Method in brief: as §2

[5] = tested on: Streptococcus sp.; test: as above; format: cell-based; conditions: broth dilution, 5×10^5 CFU/mL, 18 hours at 35° C.
Method in brief: as §2

[6] = tested on: Escherichia coli; test: as above; format: cell-based; conditions: 5×10^5 CFU/mL, 18 hours at 35° C.
Method in brief: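 An MIC is reported for each organism as the least concentration giving inhibition, using broth dilution over 64-0.06 μg/mL with a 5×10^5 CFU/mL inoculum.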

[7] = broth dilution, 18 hours at 35° C.

CC(c1ccccc1)C1NC(=O)CNC(=O)C(CO)NC(=O)C(C(O)C2CNC(=N)N2C2OC(CO)C(O)C(O)C2O)NC(=O)C(C(O)C2CNC(=N)N2)NC(=O)C(Cc2ccc(OC3OC(CO)C(OC4OC5COC(C6CC=CCC6)OC5C(O)C4O)C(O)C3O)cc2)NC1=O (stereo not drawn) [Example 115, Cyclo[glycyl-β-methylphenylalanyl-O-[4-O-[4,6-O-(cyclohex-3-en-1-ylmethylene)hexopyranosyl]hexopyranosyl]tyrosyl-3-(2-iminoimidazolidin-4-yl)seryl-3-(3-hexopyranosyl-2-iminoimidazolidin-4-yl)serylseryl]]
median effective dose (ED50), Staphylococcus aureus-SMITH (GC 4543) [1]: 0.23 mg/kg
median effective dose (ED50), Enterococcus faecalis (GC 6189) [2]: 0.36 mg/kg
MIC Staphylococcus aureus (ATCC 29213) [3]: 1 µg/mL (≈ 0.721 µM)
MIC Staphylococcus aureus (ATCC 29213) [3, 7]: 1 µg/mL (≈ 0.721 µM)
MIC Staphylococcus aureus (GC 1131) [3]: 1 µg/mL (≈ 0.721 µM)
MIC Staphylococcus aureus (GC 1131) [3, 7]: 1 µg/mL (≈ 0.721 µM)
MIC Staphylococcus aureus (GC 3051) [3]: 1 µg/mL (≈ 0.721 µM)
MIC Staphylococcus aureus (GC 3051) [3, 7]: 1 µg/mL (≈ 0.721 µM)
MIC Staphylococcus aureus (GC 3053) [3]: 1 µg/mL (≈ 0.721 µM)
MIC Staphylococcus aureus (GC 3053) [3, 7]: 1 µg/mL (≈ 0.721 µM)
MIC Staphylococcus aureus (GC 4541) [3]: 1 µg/mL (≈ 0.721 µM)
MIC Staphylococcus aureus (GC 4541) [3, 7]: 1 µg/mL (≈ 0.721 µM)
MIC Staphylococcus aureus (GC 4542) [3]: 0.5 µg/mL (≈ 0.36 µM)
MIC Staphylococcus aureus (GC 4542) [3, 7]: 0.5 µg/mL (≈ 0.36 µM)
MIC Staphylococcus aureus-SMITH (GC 4543) ([3]; 18 hours at 35° C.): 1 µg/mL (≈ 0.721 µM)
MIC Staphylococcus aureus-SMITH (GC 4543) [3, 7]: 1 µg/mL (≈ 0.721 µM)
MIC Staphylococcus aureus (GC 4544) [3]: 1 µg/mL (≈ 0.721 µM)
MIC Staphylococcus aureus (GC 4544) [3, 7]: 1 µg/mL (≈ 0.721 µM)
MIC Staphylococcus aureus (GC 4545) [3]: 0.5 µg/mL (≈ 0.36 µM)
MIC Staphylococcus aureus (GC 4545) [3, 7]: 0.5 µg/mL (≈ 0.36 µM)
MIC Staphylococcus haemolyticus (GC 4546) [3]: 0.5 µg/mL (≈ 0.36 µM)
MIC Staphylococcus haemolyticus (GC 4546) [3, 7]: 0.5 µg/mL (≈ 0.36 µM)
MIC Coagulase Negative Staphylococcus (GC 4547) [3]: 1 µg/mL (≈ 0.721 µM)
MIC Coagulase Negative Staphylococcus (GC 4547) [3, 7]: 1 µg/mL (≈ 0.721 µM)
MIC Coagulase Negative Staphylococcus (GC 4548) [3]: 0.5 µg/mL (≈ 0.36 µM)
MIC Coagulase Negative Staphylococcus (GC 4548) [3, 7]: 0.5 µg/mL (≈ 0.36 µM)
MIC Coagulase Negative Staphylococcus (GC 4549) [3]: 1 µg/mL (≈ 0.721 µM)
MIC Coagulase Negative Staphylococcus (GC 4549) [3, 7]: 1 µg/mL (≈ 0.721 µM)
MIC Coagulase Negative Staphylococcus (GC 4551) [3]: 1 µg/mL (≈ 0.721 µM)
MIC Coagulase Negative Staphylococcus (GC 4551) [3, 7]: 1 µg/mL (≈ 0.721 µM)
MIC Coagulase Negative Staphylococcus (GC 6257) [3]: 0.5 µg/mL (≈ 0.36 µM)
MIC Coagulase Negative Staphylococcus (GC 6257) [3, 7]: 0.5 µg/mL (≈ 0.36 µM)
MIC Enterococccus avium (GC 4558) [4]: 2 µg/mL (≈ 1.44 µM)
MIC Enterococccus faecalis (ATCC 29212) [4]: 2 µg/mL (≈ 1.44 µM)
MIC Enterococccus faecalis (GC 2691) [4]: 2 µg/mL (≈ 1.44 µM)
MIC Enterococccus faecalis (GC 3059) [4]: 2 µg/mL (≈ 1.44 µM)
MIC Enterococccus faecalis (GC 4552) [4]: 2 µg/mL (≈ 1.44 µM)
MIC Enterococccus faecalis (GC 4553) [4]: 4 µg/mL (≈ 2.88 µM)
MIC Enterococccus faecalis (GC 4554) [4]: 2 µg/mL (≈ 1.44 µM)
MIC Enterococccus faecalis (GC 6189) [4]: 2 µg/mL (≈ 1.44 µM)
MIC Enterococccus faecium (GC 2243) [4]: 2 µg/mL (≈ 1.44 µM)
MIC Enterococccus faecium (GC 4556) [4]: 2 µg/mL (≈ 1.44 µM)
MIC Enterococccus faecium (GC 4557) [4]: 2 µg/mL (≈ 1.44 µM)
MIC Enterococcus faecalis (GC 2242) [4]: 2 µg/mL (≈ 1.44 µM)
MIC Streptococcus agalactiae (GC 4564) [5]: 0.25 µg/mL (≈ 0.18 µM)
MIC Streptococcus pneumoniae (GC 1894) [5]: <0.06 µg/mL
MIC Streptococcus pneumoniae (GC 4565) [5]: 0.12 µg/mL (≈ 0.0865 µM)
MIC Streptococcus pneumonine (ATCC 6301) [5]: <0.06 µg/mL
MIC Streptococcus pyogenes (GC 4563) [5]: 0.25 µg/mL (≈ 0.18 µM)
MIC Escherichia coli (ATCC 25922) [6]: 32 µg/mL (≈ 23.1 µM)
MIC Escherichia coli (GC 4559) [6]: 64 µg/mL (≈ 46.1 µM)
MIC Escherichia coli (GC 4560) [6]: 1 µg/mL (≈ 0.721 µM)
